Legend:
[1] = target: Peptidyl-prolyl cis-trans isomerase FKBP1A (Homo sapiens, UniProt P62942); assay: Ability to bind the major cystolic receptor FK506 binding protein 12 by using competitive binding assay
T-cell = assay: In vitro evaluation for immunosuppressive activity against proliferation of antigen stimulated murine splenic T cells; assay type: functional, cell-based; conditions: Mus musculus

Sequence of Peptidyl-prolyl cis-trans isomerase FKBP1A (P62942 whole entry): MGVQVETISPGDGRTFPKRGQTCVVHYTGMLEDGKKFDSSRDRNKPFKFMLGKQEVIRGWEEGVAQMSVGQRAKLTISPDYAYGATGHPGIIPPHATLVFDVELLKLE

CC[C@@H]1/C=C(\C)C[C@H](C)C[C@H](OC)[C@H]2O[C@@](O)(C(=O)C(=O)N3CCCC[C@H]3C(=O)O[C@H](/C(C)=C/[C@@H]3CC[C@@H](O)[C@H](OC)C3)[C@H](C)[C@@H](O)CC1=O)[C@H](C)C[C@@H]2OC [ASCOMYCIN]
EC50 [1]: 1.6 nM

CC[C@@H]1/C=C(\C)C[C@H](C)C[C@H](OC)[C@H]2O[C@@](O)(C(=O)C(=O)N3CCCC[C@H]3C(=O)O[C@H](/C(C)=C/[C@@H]3CC[C@@H](OC(C)c4ccccc4)[C@H](OC)C3)[C@H](C)[C@@H](O)CC1=O)[C@H](C)C[C@@H]2OC (stereo not given in full)
IC50 (T-cell): 11.3 nM

CC[C@@H]1/C=C(\C)C[C@H](C)C[C@H](OC)[C@H]2O[C@@](O)(C(=O)C(=O)N3CCCC[C@H]3C(=O)O[C@H](/C(C)=C/[C@@H]3CC[C@@H](OC/C=C/c4ccc(Br)cc4)[C@H](OC)C3)[C@H](C)[C@@H](O)CC1=O)[C@H](C)C[C@@H]2OC
IC50 (T-cell): 14.5 nM | EC50 [1]: 23 nM

CC[C@@H]1/C=C(\C)C[C@H](C)C[C@H](OC)[C@H]2O[C@@](O)(C(=O)C(=O)N3CCCC[C@H]3C(=O)O[C@H](/C(C)=C/[C@@H]3CC[C@@H](OCc4cccs4)[C@H](OC)C3)[C@H](C)[C@@H](O)CC1=O)[C@H](C)C[C@@H]2OC
IC50 (T-cell): 7.1 nM

CC[C@@H]1/C=C(\C)C[C@H](C)C[C@H](OC)[C@H]2O[C@@](O)(C(=O)C(=O)N3CCCC[C@H]3C(=O)O[C@H](/C(C)=C/[C@@H]3CC[C@@H](OCc4ccco4)[C@H](OC)C3)[C@H](C)[C@@H](O)CC1=O)[C@H](C)C[C@@H]2OC
IC50 (T-cell): 13.9 nM

CC[C@@H]1/C=C(\C)C[C@H](C)C[C@H](OC)[C@H]2O[C@@](O)(C(=O)C(=O)N3CCCC[C@H]3C(=O)O[C@H](/C(C)=C/[C@@H]3CC[C@@H](OCCCc4ccccc4)[C@H](OC)C3)[C@H](C)[C@@H](O)CC1=O)[C@H](C)C[C@@H]2OC
IC50 (T-cell): 3.5 nM

CC[C@@H]1/C=C(\C)C[C@H](C)C[C@H](OC)[C@H]2O[C@@](O)(C(=O)C(=O)N3CCCC[C@H]3C(=O)O[C@H](/C(C)=C/[C@@H]3CC[C@@H](OC/C=C/C(C)(C)C)[C@H](OC)C3)[C@H](C)[C@@H](O)CC1=O)[C@H](C)C[C@@H]2OC
IC50 (T-cell): 14.2 nM

CC[C@@H]1/C=C(\C)C[C@H](C)C[C@H](OC)[C@H]2O[C@@](O)(C(=O)C(=O)N3CCCC[C@H]3C(=O)O[C@H](/C(C)=C/[C@@H]3CC[C@@H](OCc4ccccc4)[C@H](OC)C3)[C@H](C)[C@@H](O)CC1=O)[C@H](C)C[C@@H]2OC
IC50 (T-cell): 3 nM

CC[C@@H]1/C=C(\C)C[C@H](C)C[C@H](OC)[C@H]2O[C@@](O)(C(=O)C(=O)N3CCCC[C@H]3C(=O)O[C@H](/C(C)=C/[C@@H]3CC[C@@H](OC/C=C/c4ccc(O)cc4)[C@H](OC)C3)[C@H](C)[C@@H](O)CC1=O)[C@H](C)C[C@@H]2OC
EC50 [1]: 20.5 nM

CC#CCO[C@@H]1CC[C@@H](/C=C(\C)[C@H]2OC(=O)[C@@H]3CCCCN3C(=O)C(=O)[C@]3(O)O[C@H]([C@@H](OC)C[C@@H](C)C/C(C)=C/[C@@H](CC)C(=O)C[C@H](O)[C@H]2C)[C@@H](OC)C[C@H]3C)C[C@H]1OC
IC50 (T-cell): 6.1 nM

CC[C@@H]1/C=C(\C)C[C@H](C)C[C@H](OC)[C@H]2O[C@@](O)(C(=O)C(=O)N3CCCC[C@H]3C(=O)O[C@H](/C(C)=C/[C@@H]3CC[C@@H](OC/C=C/c4cccc(O)c4)[C@H](OC)C3)[C@H](C)[C@@H](O)CC1=O)[C@H](C)C[C@@H]2OC
IC50 (T-cell): 0.8 nM

CC[C@@H]1/C=C(\C)C[C@H](C)C[C@H](OC)[C@H]2O[C@@](O)(C(=O)C(=O)N3CCCC[C@H]3C(=O)O[C@H](/C(C)=C/[C@@H]3CC[C@@H](OC/C=C/c4ccc(OC)cc4)[C@H](OC)C3)[C@H](C)[C@@H](O)CC1=O)[C@H](C)C[C@@H]2OC
IC50 (T-cell): 3.8 nM

CC[C@@H]1/C=C(\C)C[C@H](C)C[C@H](OC)[C@H]2O[C@@](O)(C(=O)C(=O)N3CCCC[C@H]3C(=O)O[C@H](/C(C)=C/[C@@H]3CC[C@@H](OC(C)C)[C@H](OC)C3)[C@H](C)[C@@H](O)CC1=O)[C@H](C)C[C@@H]2OC
IC50 (T-cell): 12.5 nM

CC[C@@H]1/C=C(\C)C[C@H](C)C[C@H](OC)[C@H]2O[C@@](O)(C(=O)C(=O)N3CCCC[C@H]3C(=O)O[C@H](/C(C)=C/[C@@H]3CC[C@@H](OC/C=C/c4ccc(Cl)cc4)[C@H](OC)C3)[C@H](C)[C@@H](O)CC1=O)[C@H](C)C[C@@H]2OC
IC50 (T-cell): 15.8 nM

CC[C@@H]1/C=C(\C)C[C@H](C)C[C@H](OC)[C@H]2O[C@@](O)(C(=O)C(=O)N3CCCC[C@H]3C(=O)O[C@H](/C(C)=C/[C@@H]3CC[C@@H](OC/C=C/c4cc(F)cc(F)c4)[C@H](OC)C3)[C@H](C)[C@@H](O)CC1=O)[C@H](C)C[C@@H]2OC
IC50 (T-cell): 3.9 nM

C=CC[C@@H]1/C=C(\C)C[C@H](C)C[C@H](OC)[C@H]2O[C@@](O)(C(=O)C(=O)N3CCCC[C@H]3C(=O)O[C@H](/C(C)=C/[C@@H]3CC[C@@H](O)[C@H](OC)C3)[C@H](C)[C@@H](O)CC1=O)[C@H](C)C[C@@H]2OC [TACROLIMUS ANHYDROUS]
IC50 (T-cell): 0.29 nM

CC[C@@H]1/C=C(\C)C[C@H](C)C[C@H](OC)[C@H]2O[C@@](O)(C(=O)C(=O)N3CCCC[C@H]3C(=O)O[C@H](/C(C)=C/[C@@H]3CC[C@@H](OC/C(C)=C/c4ccccc4)[C@H](OC)C3)[C@H](C)[C@@H](O)CC1=O)[C@H](C)C[C@@H]2OC
IC50 (T-cell): 5.5 nM

CC[C@@H]1/C=C(\C)C[C@H](C)C[C@H](OC)[C@H]2O[C@@](O)(C(=O)C(=O)N3CCCC[C@H]3C(=O)O[C@H](/C(C)=C/[C@@H]3CC[C@@H](OC/C=C/c4ccc(F)cc4)[C@H](OC)C3)[C@H](C)[C@@H](O)CC1=O)[C@H](C)C[C@@H]2OC
IC50 (T-cell): 5.5 nM

CC[C@@H]1/C=C(\C)C[C@H](C)C[C@H](OC)[C@H]2O[C@@](O)(C(=O)C(=O)N3CCCC[C@H]3C(=O)O[C@H](/C(C)=C/[C@@H]3CC[C@@H](OC/C=C/C4CCCCC4)[C@H](OC)C3)[C@H](C)[C@@H](O)CC1=O)[C@H](C)C[C@@H]2OC
IC50 (T-cell): 5.5 nM

CC[C@@H]1/C=C(\C)C[C@H](C)C[C@H](OC)[C@H]2O[C@@](O)(C(=O)C(=O)N3CCCC[C@H]3C(=O)O[C@H](/C(C)=C/[C@@H]3CC[C@@H](OC/C=C/c4cccc(F)c4)[C@H](OC)C3)[C@H](C)[C@@H](O)CC1=O)[C@H](C)C[C@@H]2OC
IC50 (T-cell): 2.5 nM

CC[C@@H]1/C=C(\C)C[C@H](C)C[C@H](OC)[C@H]2O[C@@](O)(C(=O)C(=O)N3CCCC[C@H]3C(=O)O[C@H](/C(C)=C/[C@@H]3CC[C@@H](OC/C=C/c4cccc([N+](=O)[O-])c4)[C@H](OC)C3)[C@H](C)[C@@H](O)CC1=O)[C@H](C)C[C@@H]2OC
IC50 (T-cell): 1.9 nM | EC50 [1]: 34.3 nM

C/C=C(C)/C=C/CO[C@@H]1CC[C@@H](/C=C(\C)[C@H]2OC(=O)[C@@H]3CCCCN3C(=O)C(=O)[C@]3(O)O[C@H]([C@@H](OC)C[C@@H](C)C/C(C)=C/[C@@H](CC)C(=O)C[C@H](O)[C@H]2C)[C@@H](OC)C[C@H]3C)C[C@H]1OC
IC50 (T-cell): 6.9 nM

CC[C@@H]1/C=C(\C)C[C@H](C)C[C@H](OC)[C@H]2O[C@@](O)(C(=O)C(=O)N3CCCC[C@H]3C(=O)O[C@H](/C(C)=C/[C@@H]3CC[C@@H](OCC#Cc4ccccc4)[C@H](OC)C3)[C@H](C)[C@@H](O)CC1=O)[C@H](C)C[C@@H]2OC
IC50 (T-cell): 2.7 nM

Source: ChEMBL document CHEMBL1150021, “Alkyl ether analogs of the FK-506 related, immunosuppressive macrolide L-683,590 (ascomycin)” (Bioorg Med Chem Lett, 1994)
